Assay results: patent publication US20160257651A1, “NOVEL COMPOUND WITH ANTIBACTERIAL ACTIVITY” (priority 2013, published 2016)
≈ marks a conversion by molar mass, not a printed value. Where two headings read alike, the source gives them in different places.

What was measured:
[1] = system: E. coli strain 1709; experiment: Antibacterial activity against Escherichia coli
Text: (§9) The numerical values in the tables indicate MIC (mg/L), Res means resistant bacterium, and Sus means susceptible bacterium.
(§10) Antibacterial activities against Escherichia coli of the compounds shown Table 19 were examined by the following method.
(§11) After completion of the culture, the cells were suspended in fresh TBS to prepare a cell suspension showing an absorbance of 0.3 at 578 nm.

[2] = system: E. coli strain 1708; experiment: Antibacterial activity against Escherichia coli
Text: as §9, §10, §11

[3] = system: S. aureus FDA209P (ATCC 6538P); experiment: microbe, parasite or virus in culture; format: cell-based, Staphylococcus aureus; conditions: quinolone-susceptible MSSA, ParC 80S, GyrA 84S
Experimental: (§1) Then, the cell suspension was diluted 500 times with CAMHB mentioned above.

[4] = system: S. aureus Mu50; experiment: microbe, parasite or virus in culture; format: cell-based, Staphylococcus aureus; conditions: for MIC: S. aureus Mu50, quinolone-resistant MRSA, ParC S80F, GyrA S84L; for MIC ratio (Mu50 MIC/FDA209P MIC): MIC for S. aureus Mu50 / MIC for S. aureus FDA209P
Experimental: as §1

[5] = system: E. faecalis 36-15722; experiment: MIC against Enterococcus bacteria; format: cell-based, Enterococcus faecalis; conditions: Enterococcus faecalis, 3615722; E. faecalis 36-15722, quinolone-resistant; ParC 80Ile, GyrA 84Ile; read-out: MIC
Experimental: (§2) Antibacterial activities of the compound J-131CP against Enterococcus bacteria (Enterococcus faecium and Enterococcus faecalis) were examined by the following methods.
(§3) The compound J-131CP and quinolones were prepared in the same manner as that of Test Example 1-1.
(§4) Cell suspensions were prepared in the same manner as that of Test Example 1-1 described in the section of measurement of MIC in Test Example 1-1, except that the Enterococcus bacterium strains mentioned in Table 8 were used instead of Staphylococcus aureus, and MICs of the compound J-131CP and quinolones as control were determined for the strains in the same manner as that of Test Example 1-1 described in the section of measurement of MIC in Test Example 1-1. In Table 8, the amino acid substitution mutations in QRDR of the strains are underlined.

[6] = system: E. faecalis NCTC12201; experiment: MIC against Enterococcus bacteria; format: cell-based; conditions: Enterococcus faecalis, NCTC 12201 / VRE, quinolone-susceptible
Experimental: as §2, §3, §4

[7] = system: S. pneumoniae BCLSP37; experiment: MIC against pneumococcus, CAMHB with 5 mass % LHB; format: cell-based, Streptococcus pneumoniae; conditions: Streptococcus pneumoniae, BCLSP37, S. pneumoniae BCLSP37, PSSP, quinolone-resistant; ParC 79Phe, GyrA 85Lys; read-out: MIC
Experimental: (§5) The S. pneumoniae strains used for this test belong to any one of the categories of penicillin-susceptible pneumococcus (penicillin-susceptible Streptococcus pneumoniae, PSSP), penicillin-intermediate pneumococcus (penicillin-intermediate Streptococcus pneumoniae, PISP), and penicillin-resistant pneumococcus (penicillin-resistant Streptococcus pneumoniae, PRSP).
(§6) The lysed horse blood was prepared by adding sterilized water to horse sterile defibered blood (produced by Nippon Bio-Supp. Center) at a ratio of 1:1, subjecting the mixture to freezing and thawing 5 times, then centrifuging the mixture twice at 10,000 rpm for 20 minutes, and filtering the supernatant through a filter.
(§7) The S. pneumoniae strains mentioned in Table 11 were each cultured overnight at 37° C. on a blood agar medium as stationary culture. The blood agar medium was prepared by adding 5 mass % ovine sterile defibered blood (produced by Nippon Bio-Supp. Center) to a heart infusion agar medium (produced by EIKEN CHEMICAL). Each S. pneumoniae strain cultured overnight at 37° C. as stationary culture was further subcultured overnight at 37° C. on fresh blood agar medium as stationary culture. After completion of the culture, cells of each pneumococcus strain were collected with a swab, and suspended in physiological saline, and the suspension was adjusted with physiological saline to show absorbance of 0.08 to 0.13 at 625 nm as measured with an absorbance meter (produced by Amersham), and further diluted 200 times with CAMHB containing 5 mass % LHB.
(§8) In Table 11, the amino acid substitution mutations in QRDR of the strains are underlined.

[8] = system: S. pneumoniae KBSP11; experiment: MIC against pneumococcus, CAMHB with 5 mass % LHB; format: cell-based, Streptococcus pneumoniae; conditions: Streptococcus pneumoniae, PRSP
Experimental: as §5, §6, §7, §8

[9] = Staphylococcus aureus, ATCC 6538P / FDA209P / MSSA, read-out: MIC

| Compound | MIC [1] | MIC [2] | MIC [3, 9] | MIC ([4]; Staphylococcus aureus, MRSA) | MIC ratio (Mu50 MIC/FDA209P MIC) [4] | MIC [3] | MIC [4] | further results |
| --- | --- | --- | --- | --- | --- | --- | --- | --- |
| Nc1c(CO)c2cc(F)c(-c3ccc(O)cc3)cc2n(C2CC2)c1=O [J-179] | 128 µg/mL (≈ 376 µM) | 128 µg/mL (≈ 376 µM) | 0.5 µg/mL (≈ 1.47 µM) | 1 µg/mL (≈ 2.94 µM) | – | – | – | – |
| O=c1cc(O)c2ccc(-c3ccc(O)cc3)c(OC(F)F)c2n1C1CC1 [J-158] | 128 µg/mL (≈ 356 µM) | 128 µg/mL (≈ 356 µM) | 8 µg/mL (≈ 22.3 µM) | 4 µg/mL (≈ 11.1 µM) | – | – | – | – |
| Cc1cc(=O)n(C)c2cc(-c3ccc(O)cc3)ccc12 [J-121Me] | – | – | 128 µg/mL (≈ 482 µM) | 4 µg/mL (≈ 15.1 µM) | 0.0313 | – | – | – |
| Cn1c(=O)cc(CO)c2cc(F)c(-c3ccc(N)cc3)cc21 [J-132, 7-(4-aminophenyl)-6-fluoro-4-(hydroxymethyl)-1-methylhydroquinolin-2-one] | – | – | – | – | 0.0625 | 128 µg/mL (≈ 429 µM) | 8 µg/mL (≈ 26.8 µM) | – |
| CC(O)c1cc(=O)n(C2CC2)c2cc(-c3ccc4c(c3)CNC4C)c(F)cc12 (centres unmarked) [J-144M] | 4 µg/mL (≈ 10.6 µM) | 128 µg/mL (≈ 338 µM) | 0.5 µg/mL (≈ 1.32 µM) | 4 µg/mL (≈ 10.6 µM) | – | – | – | MIC [5]: 2 µg/mL (≈ 5.28 µM); MIC [6]: 1 µg/mL (≈ 2.64 µM) |
| NC(=O)c1cc(=O)n(C2CC2)c2cc(-c3ccc(O)cc3)c(F)cc12 [J-173] | 128 µg/mL (≈ 378 µM) | 128 µg/mL (≈ 378 µM) | 8 µg/mL (≈ 23.6 µM) | 2 µg/mL (≈ 5.91 µM) | – | – | – | MIC [7]: 8 µg/mL (≈ 23.6 µM); MIC [8]: 8 µg/mL (≈ 23.6 µM) |
| Cc1cc(=O)n2c3c(c(-c4ccc(O)cc4)c(F)cc13)OCC2C (centres unmarked) [J-149d] | 128 µg/mL (≈ 393 µM) | 128 µg/mL (≈ 393 µM) | 1 µg/mL (≈ 3.07 µM) | 0.5 µg/mL (≈ 1.54 µM) | – | – | – | – |
| CC(=O)OCc1cc(=O)n(C2CC2)c2cc(-c3ccc(O)cc3)c(F)cc12 [J-131ACp, [1-cyclopropyl-6-fluoro-7-(4-hydroxyphenyl)-2-oxo-4-hydroquinolyl]methyl.acetate] | 128 µg/mL | 128 µg/mL | 64 µg/mL | 4 µg/mL | 0.0625 | – | – | – |
| CN1CCN(c2cc3c(cc2F)c(CO)cc(=O)n3C2CC2)CC1 [J-146, 1-cyclopropyl-6-fluoro-4-(hydroxymethyl)-7-(4-methylpiperazin-1-yl)quinolin-2(1H)-one] | – | – | 16 µg/mL (≈ 48.3 µM) | 16 µg/mL (≈ 48.3 µM) | 1 | – | – | – |
| O=c1cc(CO)c2ccc(-c3ccc(O)cc3)cc2n1C1CC1 [J-121Cp, 1-cyclopropyl-4-hydroxymethyl-7-(4-hydroxy-phenyl)-1H-quinolin-2-one] | – | – | 1 µg/mL (≈ 3.25 µM) | 0.5 µg/mL (≈ 1.63 µM) | 0.5 | – | – | – |
| CCn1c(=O)cc(CO)c2cc(F)c(-c3ccc(O)cc3)cc21 [J-131E, 1-ethyl-6-fluoro-4-(hydroxymethyl)-7-(4-hydroxyphenyl)hydroquinolin-2-one] | – | – | – | – | 0.25 | 2 µg/mL (≈ 6.38 µM) | 0.5 µg/mL (≈ 1.6 µM) | – |
| CCC(=O)OCc1cc(=O)n(C2CC2)c2cc(-c3ccc(N)cc3)c(F)cc12 [J-138, [7-(4-aminophenyl)-1-cyclopropyl-6-fluoro-2-oxo-4-hydroquinolyl]methyl propanoate] | – | – | – | – | 1 | 2 µg/mL (≈ 5.26 µM) | 2 µg/mL (≈ 5.26 µM) | – |
| Cc1cc2c(CO)cc(=O)n(C3CC3)c2cc1-c1ccc(O)cc1 [J-140, 1-cyclopropyl-4-(hydroxymethyl)-7-(4-hydroxyphenyl)-6-methylhydroquinolin-2-one] | – | – | – | – | 0.25 | 1 µg/mL (≈ 3.11 µM) | 0.25 µg/mL (≈ 0.778 µM) | – |
| 9-(hydroxyphenyl)-6-methyloxazolo[5,4,3-ij]quinolin-4(2H)-one [J-2.1.1] | – | – | – | – | 0.5 | 32 µg/mL | 16 µg/mL | – |
